Assay results from patent US20250295609A1, “COMPOUND HAVING ANTI-ANDROGEN RECEPTOR ACTIVITY, AND USE THEREOF” (NANJING MINOVA PHARMACEUTICAL CO., LTD., priority 2022, published 2025).

Target: T1, AR protein expression in human prostate cancer cells LNCaP (Homo sapiens, UniProt P10275, T878A)
T1 sequence (P10275 1-920 T878A): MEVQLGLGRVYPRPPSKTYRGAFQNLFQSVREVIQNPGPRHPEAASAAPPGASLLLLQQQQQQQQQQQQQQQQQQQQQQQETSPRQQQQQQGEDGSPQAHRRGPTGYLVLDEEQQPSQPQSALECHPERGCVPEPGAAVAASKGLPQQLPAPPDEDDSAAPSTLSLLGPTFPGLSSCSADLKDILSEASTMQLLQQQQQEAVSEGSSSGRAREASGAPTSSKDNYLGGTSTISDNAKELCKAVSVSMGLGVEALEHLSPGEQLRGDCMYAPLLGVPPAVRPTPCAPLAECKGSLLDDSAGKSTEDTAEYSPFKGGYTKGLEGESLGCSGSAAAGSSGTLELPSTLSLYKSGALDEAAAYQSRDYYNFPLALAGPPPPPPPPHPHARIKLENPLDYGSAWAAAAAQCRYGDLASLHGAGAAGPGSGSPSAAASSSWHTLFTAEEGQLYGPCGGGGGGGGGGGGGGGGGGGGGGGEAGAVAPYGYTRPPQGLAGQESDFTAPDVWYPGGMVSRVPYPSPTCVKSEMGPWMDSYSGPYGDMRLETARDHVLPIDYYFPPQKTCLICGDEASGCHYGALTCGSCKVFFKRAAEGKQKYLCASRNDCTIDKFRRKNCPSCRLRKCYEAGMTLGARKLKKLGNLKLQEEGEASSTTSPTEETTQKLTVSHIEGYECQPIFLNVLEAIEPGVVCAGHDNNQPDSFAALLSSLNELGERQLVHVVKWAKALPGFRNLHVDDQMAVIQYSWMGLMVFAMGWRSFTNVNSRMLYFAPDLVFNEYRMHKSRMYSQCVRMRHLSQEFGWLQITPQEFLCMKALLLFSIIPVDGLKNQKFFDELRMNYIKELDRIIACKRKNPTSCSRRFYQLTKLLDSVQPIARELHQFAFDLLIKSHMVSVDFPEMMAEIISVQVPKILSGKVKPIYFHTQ
Assay: Reduction of AR protein expression in LNCaP cells (Western blot, with DHT)
Assay type: cell-based
Conditions: 1 nM DHT; for anti-AR activity (in words): Western blot; for AR reduction percentage / Relative potency (anti-AR activity): 48 h; for Relative potency (anti-AR activity): concentration basis not given
Method: The term “anti-AR activity” refers to the ability of the compound of the present disclosure to reduce AR expression in human prostate cancer cells LNCaP, and the ability of the compound of the present disclosure to reduce AR expression is expressed in AR reduction percentage (%) herein. […] The AR reduction percentage (%) is calculated as follows: AR reduction percentage (%)=(AR in DHT group/GAPDH value−AR in test compound group/GAPDH value)/AR in DHT group/GAPDH value×100%.
AR is a key factor for regulating the response of prostate cancer cells to androgens. AR is also a key factor for the response of hair follicles or tissues around the hair follicles to androgens, and the reduction of the AR content not only can down-regulate the growth of the prostate cancer cells, but also can inhibit androgenetic alopecia. This test example is to test the effects of the compounds of the present disclosure on the reduction of AR protein expression in human prostate cancer cells LNCaP in the presence of DHT. The compounds of the present disclosure were analyzed for anti-AR activity in human prostate cancer cells LNCaP by measuring the reduction of AR protein using the Western blot method.
Human prostate cancer cells LNCaP were seeded in a 6-well plate at 4×10^5 cells/mL and at a volume of 2 mL per well. The plate was incubated overnight in a cell incubator. DMSO and dihydrotestosterone (DHT, 1 nM) were used as control groups. Assays were performed in the presence of dihydrotestosterone (DHT, 1 nM). After incubating with the test compounds for a specified time, the cells were collected and dissolved according to the Western blot technique known in the biochemical art. A DMSO group, a DHT group (1 nM) and test compound groups (containing 1 nM DHT) were set during the assay. DMSO and DHT (1 nM DHT) were added to 6-well plates corresponding to the DMSO group and the DHT group, respectively. […] The protein concentration was quantified using the BCA kit, and then the samples were stored for later use.
The content of the AR protein in each group was determined by using Western Blot, and the loading amount of the sample in each group was […]. Western blot analysis has been disclosed in the prior art. Specifically, the cells were collected in 2× sodium dodecyl sulfate/polyacrylamide gel electrophoresis loading buffer or in radioimmunoprecipitation assay (RIPA) buffer strengthened with 10 μg/mL benzamidine, 10 μg/mL trypsin inhibitor, and 1 mM phenylmethylsulfonyl fluoride. A sample of total protein (about 40 μg) from each cell lysate was separated by electrophoresis on an SDS/PAGE gel. After separation by electrophoresis, the proteins were transferred from the gel to a nitrocellulose membrane following the standard procedures. The membrane was then incubated with 10% non-fat milk in phosphate-buffered saline supplemented with 0.1% Tween 20 (PBST) for 1 h, followed by incubation with a primary human AR-specific antibody (purchased from BD-Harlingen) at 4° C. overnight. After incubation, the membrane was washed 3 times with PBST buffer, each for 10 mins. An alkaline phosphatase-conjugated secondary antibody was then added, and the membrane was incubated at room temperature for 1 h. After the secondary incubation, the membrane was washed again with PBST, and the AR protein signal in the membrane was visualized by adding an alkaline phosphatase medium, bromochloroindolyl phosphate, and nitrotetrazole to the membrane. To ensure that an equal amount of protein from each sample was analyzed, a portion of the membrane was kept with a specific antibody for the regulatory protein GAPDH (Santa Cruz Biotechnology), and the GAPDH signal was visualized with the secondary antibody described above. The protein signal intensity (as indicated by color bands on the membrane) was measured using a densitometer and analyzed by the NIH Image J software (NIH1.33).

Compound	anti-AR activity (in words)	AR reduction percentage (2.5 μmol/L compound) [%]	AR reduction percentage (5 μmol/L compound) [%]	AR reduction percentage (10 μmol/L compound) [%]	Relative potency (anti-AR activity)
COc1ccc(/C=C/C(=O)C2(C(=O)/C=C/c3ccc(OC)c(OC)c3)CCC(=O)CC2)cc1OC [Compound 7]	significant anti-AR activities	0	67.3	95.6	+++++ (62.5 < * ≤ 75)
COc1ccc(/C=C/C(=O)C2(C(=O)/C=C/c3ccc(OC)c(OC)c3)CCC(F)(F)CC2)cc1OC [Compound 8]	significant anti-AR activities	57.5	87.3	92.2	++++++ (75 < * ≤ 100)
